Test results taken from ChEMBL document CHEMBL1158190, “New Tetracyclic Sesterterpenes from Cydonia vulgaris” (J Nat Prod, 1996).
The source made the active and inactive calls. The rule behind the calls is not given here.

Test system: Human immunodeficiency virus 1
Assay: Antiviral activity against 10 CCID50 units of HIV1 infected in human C8166 cells at 2.5 ug/mL after 5 to 7 days
Assay type: functional, organism-based

| Structure (SMILES) | Activity |
| --- | --- |
| CC(=O)OC[C@]1(O)CC[C@@H]2[C@@]3(C)CCCC(C)(C)[C@@H]3CC[C@@]2(C)[C@H]1CC(O)C1=CC(=O)OC1OC(C)=O (some centres undefined) | inactive |
| CC1(C)CCC[C@]2(C)[C@H]3CC[C@@](O)(CO)[C@H](CC(O)C4=CC(=O)OC4OC(=O)/C=C/c4ccccc4)[C@]3(C)CC[C@@H]12 (some centres undefined) | inactive |
| CC(=O)OC1OC(=O)C=C1C(O)C[C@H]1[C@](O)(CO)CC[C@@H]2[C@@]3(C)CCCC(C)(C)[C@@H]3CC[C@]21C (some centres undefined) | inactive |
| CC(=O)OC[C@]1(O)CC[C@@H]2[C@@]3(C)CCCC(C)(C)[C@@H]3CC[C@@]2(C)[C@H]1CC(O)C1=CC(=O)OC1OC(=O)/C=C/c1ccccc1 (some centres undefined) | inactive |
